Tests used:
Bcl-xL = target: T1, Bcl-xL (Homo sapiens, UniProt Q07817); assay: Fluorescence anisotropy direct binding assay, Bcl-xL; conditions: trimer fixed at 50 nM
T1 construct: made in house
Method: (§1) The fluorescently tagged trimers 4 and 5 were designed for use in direct binding experiments. We observed that upon ‘click’ reaction, the fluorescence of the coumarin group in trimer 4 was quenched (Fig. S14 ^†). This trimer was therefore tested in the fluorescence anisotropy competition assays as described above (Fig. S7 and S8 ^†). […] Direct binding experiments were performed using both fluorescence anisotropy (Fig. 3b) and microscale thermophoresis[52] (Fig. S12 ^†). […] The same fluorescence anisotropy experiment was then carried out for Mcl-1 and Bcl-xL. […] The absence of selectivity between hDM2 and Mcl-1 in this instance may arise as a consequence of non-specific interactions imparted by the fluorescein group – we note that K d is lower for 5 than the IC50's observed for both 2 and 3 which would support this hypothesis.
Figure S10 - Change of intensity during addition of Mcl-1 used to calculate λ.
Anisotropy Direct Binding to Bcl-x L
Figure S11 – Anisotropy direct binding of Compound 5 to Bcl-x L at a fixed concentration of 5 of 50
nM. Performed in phosphate buffer pH 7.5, 200 mM NaCl, 0.02 mg/ml BSA. […]

Mcl-1 = target: T2, Mcl-1 (Homo sapiens, UniProt Q07820); assay: Fluorescence anisotropy direct binding assay, Mcl-1; conditions: trimer fixed at 50 nM, read-out: Kd obtained through direct titration, Mcl-1
T2 construct: The pet28a His-SUMO Mcl-1 (172-327) construct was over-expressed; His (N, cleaved yes); SUMO (N, cleaved yes); made in house; host or cells: E. coli Rosetta 2
Method: (§2) Fig. 3 Fluorescence anisotropy binding assays in phosphate buffer pH 7.5, 200 mM NaCl, 0.02 mg ml^–1 BSA. (a) p53/hDM2 competition assay hDM2 is fixed as 154 nM and FITC-p53 is at a concentration of 54.5 nM. (b) Direct binding assay of trimer 5 binding to hDM2 or Mcl-1. Compound 5 is fixed at 50 nM.
as §1
Figure S9 - Change of intensity during addition of hDM2 used to calculate λ.
Mcl-1172-327 was diluted into buffer across the 24 wells from 200 μM to 18 nM. […] Ligand bound was calculated from Eq. 3 using λ =
2.31. K d was calculated from Eq. 4. […]

hDM2 [1] = target: T3, hDM2 (Homo sapiens, UniProt Q00987); assay: Microscale thermophoresis direct binding to hDM2; conditions: trimer fixed at 50 nM, phosphate buffer pH 7.5
T3 construct: hDM2 17-126 was diluted into buffer; made in house
Method: as §1
Thermophoresis Direct Binding to h DM2
Figure S12 – Direct binding of Compound 5 to hDM2 measured using thermophoresis at a fixed […]
concentration of 5 of 50 nM. […] Performed in phosphate buffer pH 7.5, 200 mM NaCl, […]
The larger errors at lower protein concentration are possibly the result of non-specific binding of the fluorescent trimer to the thermophoresis capillaries.
Fluorescence and Absorbance Characterisation of Trimers 4 and 5 […]
(1 picture or pasted object on this page, not shown here)

hDM2 [2] = target: T3, hDM2; assay: Fluorescence anisotropy direct binding assay, hDM2; conditions: trimer fixed at 50 nM, read-out: Kd obtained through direct titration, hDM2
Method: as §2
The fluorescently tagged trimers 4 and 5 were designed for use in direct binding experiments. We observed that upon ‘click’ reaction, the fluorescence of the coumarin group in trimer 4 was quenched (Fig. S14 ^†). This trimer was therefore tested in the fluorescence anisotropy competition assays as described above (Fig. S7 and S8 ^†). […] Direct binding experiments were performed using both fluorescence anisotropy (Fig. 3b) and microscale thermophoresis[52] (Fig. S12 ^†). […] The same fluorescence anisotropy experiment was then carried out for Mcl-1 and Bcl-xL. […]
Figure S8 – Fluorescence anisotropy competition assay testing the inhibition of the trimers against the Bcl-x L/BAK interaction; unfunctionalised trimer 1 and acid, ethylene glycol and coumarin-functionalised trimers 2, 3 and 4. […]
Direct Binding Assay Development hDM2 17-126 was diluted into buffer across the 24 wells from 400 μM to 36 nM. […] Ligand bound was calculated from Eq. 3 using λ =
2.06. K d was calculated from Eq. 4. […]

Mcl-1/NOXA-B interaction = target: T4, Mcl-1/NOXA-B interaction (Homo sapiens, UniProt Q07820); assay: Fluorescence anisotropy competition assay, Mcl-1/NOXA-B; type: binding; conditions: Mcl-1 150 nM, FITC-NOXA-B 50 nM, phosphate buffer pH 7.5
T4 construct: The pet28a His-SUMO Mcl-1 (172-327) construct was over-expressed; His (N, cleaved yes); SUMO (N, cleaved yes); made in house; host or cells: E. coli Rosetta 2
Method: Determination of the binding of FITC-NOXA-B to Mcl-1
The procedure followed was adapted from our previous paper on O-alkylated aromatic oligoamides.1 […]
Briefly: Mcl-1 was serially diluted (446 pM – 5 μM) into a solution of FITC-NOXA-B (25 nM) (40 […]
mM Sodium phosphate buffer pH 7.54, 200 mM NaCl, 0.02 mg/ml of bovine serum albumin) – the […]
total volume of each well was 100 μL, the plates were allowed to incubate at room temperature for 45 […]
minutes. Each experiment was run in triplicate and the fluorescence anisotropy measured using a […]
Perkin Elmer EnVisionTM 2103 MultiLabel plate reader, with excitation at 480 nm and emission at […]
535 nm ([…] bandwidth) and the intensity (Eq. 1) was calculated for each point. This was used to […]
calculate anisotropy (Eq. 2) and plotted to a sigmoidal fit in Origin 7 to determine the minimum and […]
maximum anisotropies (rmin and rmax). Using equation 3, the data for the anisotropy was converted to […]
fraction bound and multiplied by the FITC-NOXA-B concentration then fitted in origin 7 (Eq. 4) to […]
From a plot of intensity (Eq. 1) against […]
concentration of protein λ was calculated to be 1. […]
{(k + x + [FL] - {(k + x + [FL]2 - 4x[FL]} r = anisotropy, I = total intensity, P = perpendicular intensity, S = parallel intensity, Lb = fraction ligand bound, λ = Ibound/Iunbound = 1, [FL] = concentration of fluorescent ligand, k1 = Kd , y = Lb* FITC- […]
NOXA-B and x = [added titrant], G is an instrument factor set to 1.
Figure S4 - Fluorescence anisotropy titration assays for the addition of FITC-NOXA-B to a constant […]
concentration of Mcl-1. Performed in phosphate buffer pH 7.5, 200 mM NaCl, 0.02 mg/ml BSA.
In order to set up displacement assay conditions Mcl-1 and FITC-labelled NOXA-B concentrations […]
were fixed and the tracer peptide was displaced with unlabelled NOXA-B.
Figure S5 – Fluorescence anisotropy competition assay testing the inhibition of unlabelled NOXA-B […]
against the Mcl-1/NOXA-B interaction. Performed in phosphate buffer pH 7.5, 200 mM NaCl, 0.02 […]
mg/ml BSA. Mcl-1 is fixed as 150 nM and FITC-NOXA-B is at a concentration of 50 nM. […]
Figure S7 – Fluorescence anisotropy competition assay testing the inhibition of the trimers against the Mcl-1/NOXA-B interaction; unfunctionalised trimer 1 and acid, ethylene glycol and coumarin- […]
BSA. Mcl-1 is fixed as 150 nM and FITC-NOXA-B is at a concentration of 50 nM.

p53/hDM2 interaction = target: T5, p53/hDM2 interaction (Homo sapiens, UniProt Q00987); assay: Fluorescence anisotropy competition assay, p53/hDM2; type: binding; conditions: hDM2 154 nM, FITC-p53 54.5 nM, phosphate buffer pH 7.5, 200 mM NaCl, 0.02 mg/ml BSA
T5 construct: hDM2 17-126 was diluted into buffer; made in house
Method: The ability of the trimers to inhibit the p53/hDM2 interaction was then investigated using a fluorescence anisotropy competition assay (Fig. 3a). Briefly, a fluorescein-labelled p53 peptide is initially bound to hDM2 and displaced by increasing concentrations of inhibitor leading to a measurable decrease in anisotropy from which IC50 values can be determined, Table 1.
as §2
Figure S6 – Fluorescence anisotropy competition assay testing the inhibition of the trimers against the p53/hDM2 interaction; unfunctionalised trimer 1 and acid, ethylene glycol and coumarin-functionalised trimers 2, 3 and 4. Performed in phosphate buffer pH 7.5, 200 mM NaCl, 0.02 mg/ml BSA. h DM2 is fixed as 154 nM and FITC-p53 is at a concentration of 54.5 nM. […]

Bcl-xL/BAK interaction = target: T6, Bcl-xL/BAK interaction (Homo sapiens, UniProt Q07817); assay: Fluorescence anisotropy competition assay, Bcl-xL/BAK; type: binding; conditions: Bcl-xL 131 nM, BODIPY-BAK 43 nM, phosphate buffer pH 7.5
T6 construct: made in house
Method: Figure S8 – Fluorescence anisotropy competition assay testing the inhibition of the trimers against the Bcl-x L/BAK interaction; unfunctionalised trimer 1 and acid, ethylene glycol and coumarin-functionalised trimers 2, 3 and 4. Performed in phosphate buffer pH 7.5, 200 mM NaCl, 0.02 mg/ml
BSA. Bcl-x L is fixed as 131 nM and BODIPY-BAK is at a concentration of 43 nM.
The observed increase in anisotropy is likely to be the result of aggregation of the trimer to the BAK […]
tracer and Bcl-x L complex. […]
In all experiments the G factor, or ratio between the efficiency of the S(ame) and P(erpendicular) channels was set to 1. […]

Compound | Direct binding to Bcl-xL (Bcl-xL) | Kd (Mcl-1) | Kd (hDM2 [1]) | Kd (hDM2 [2]) | IC50 (Mcl-1/NOXA-B interaction) | IC50 (p53/hDM2 interaction) | IC50 Bcl-xL/BAK (Bcl-xL/BAK interaction)
CC(C)CN(C(=O)c1ccc(N(Cc2cccc3ccccc23)C(=O)c2ccc(NCc3ccccc3)cc2)c(OCc2cn(CCOCCOCCOCCO)nn2)c1)c1ccc(C(=O)NCC(=O)O)cc1 [Trimer 3] | – | – | – | – | > 70 µM | 42 ± 6 µM | No inhibition
CC(C)CN(C(=O)c1ccc(N(Cc2cccc3ccccc23)C(=O)c2ccc(NCc3ccccc3)cc2)cc1)c1ccc(C(=O)NCC(=O)O)cc1 [Trimer 1] | – | – | – | – | > 70 µM | 12.3 ± 0.4 µM | No inhibition

Second part, the compound after the results:

Direct binding to Bcl-xL (Bcl-xL) | Kd (Mcl-1) | Kd (hDM2 [1]) | Kd (hDM2 [2]) | IC50 (Mcl-1/NOXA-B interaction) | IC50 (p53/hDM2 interaction) | IC50 Bcl-xL/BAK (Bcl-xL/BAK interaction) | Compound
no binding was observed | 13 ± 4 µM | 11 ± 2 µM | 20 ± 6 µM | – | – | – | CC(C)CN(C(=O)c1ccc(N(Cc2cccc3ccccc23)C(=O)c2ccc(NCc3ccccc3)cc2)c(OCc2cn(CCCNC(=S)Nc3ccc(-c4c5ccc(=O)cc-5oc5cc(O)ccc45)c(C(=O)O)c3)nn2)c1)c1ccc(C(=O)NCC(=O)O)cc1 [Trimer 5]
– | – | – | – | > 70 µM | 40 ± 5 µM | No inhibition | CC(C)CN(C(=O)c1ccc(N(Cc2cccc3ccccc23)C(=O)c2ccc(NCc3ccccc3)cc2)c(OCc2cn(CC(=O)O)nn2)c1)c1ccc(C(=O)NCC(=O)O)cc1 [Trimer 2]
– | – | – | – | > 70 µM | 20.3 ± 0.3 µM | No inhibition | CC(C)CN(C(=O)c1ccc(N(Cc2cccc3ccccc23)C(=O)c2ccc(NCc3ccccc3)cc2)c(OCc2cn(CCCNC(=O)c3cc4ccccc4oc3=O)nn2)c1)c1ccc(C(=O)NCC(=O)O)cc1 [Trimer 4]

Reference: PMC4157654, “Orthogonal functionalisation of α-helix mimetics” (Organic & Biomolecular Chemistry, 2014)
